Entries after “also recorded” stand apart in the source; their conditions may differ.
How the values were obtained:
[1] = tested on: calyx of Held presynaptic terminals; experiment: Membrane capacitance measurements (SV exo-endocytosis) at calyx of Held presynaptic terminals; format: cell-based, mouse; details: for Presynaptic Ca2+ current charge (QCa) / Exocytic capacitance magnitude / Endocytic rate (endocytic capacitance change): 20 μM; for Presynaptic Ca2+ current charge (QCa): 20-30 min after patch membrane rupture; for Exocytic capacitance magnitude: vs controls; for Effect on h-tau-induced endocytic slowing: 0.25 mM co-loaded with WT h-tau 20 μM
dynamin1 = experiment: Immunofluorescence quantification of bound-form dynamin in calyceal terminals; format: cell-based, mouse
Protocol: (§1) The following primary antibodies were used: anti-β3-tubulin (Synaptic System, #302304), anti-human Tau (BioLegend, #806501), anti-dynamin (Invitrogen, PA1-660). Secondary antibodies were goat IgG conjugated with Alexa Fluor 488, 568, or 647 (Thermo Fisher Scientific). Acute brainstem slices (175 μm in thickness, see below) were fixed with 4% paraformaldehyde in PBS for 30 min at 37° C. and overnight at 4° C. On the following day, slices were rinsed three times in PBS, permeabilized in PBS containing 0.5% Triton X-100 (Tx-100; Nacalai Tesque) for 30 min and blocked in PBS containing 3% bovine serum albumin (BSA; Sigma-Aldrich) and 0.05% Tx-100 for 45 min. Slices were incubated overnight at 4° C. with primary antibody diluted in PBS 0.05% Tx-100, 0.3% BSA. On the next day, slices were rinsed three times with PBS containing 0.05% Tx-100 for 10 min and incubated with corresponding secondary antibody diluted in PBS 0.05% Tx-100, 0.3% BSA for 1 h at room temperature (RT). […] For quantifying fluorescence intensity levels, the region of interest was delimited around calyceal terminals, and background fluorescence was subtracted using ImageJ software.
(§2) The monomeric GTPases dynamin 1 and 3 play critical roles in the endocytic fission of SVs (50-52). […] To test this hypothesis, we performed immunofluorescence microscopy and image analysis to quantify MTs and dynamin. […]

[2] = tested on: calyx of Held presynaptic terminals; experiment: Simultaneous pre- and postsynaptic whole-cell recording of EPSCs at the calyx of Held in brainstem slices; format: cell-based, mouse; details: for EPSC amplitude 30 min after infusion (normalized to baseline) / EPSC amplitude remaining 30 min after infusion (normalized to baseline): 20 μM loaded in presynaptic terminal; for EPSC amplitude at 30 min (normalized to baseline): 1 μM intra-terminal; for Effect on h-tau-induced EPSC rundown: 1 mM co-loaded with h-tau 20 μM, 30 min after infusion; for Prevention of WT h-tau-induced EPSC rundown: 20 μM co-loaded with WT h-tau 20 μM
β3-tubulin = experiment: Immunofluorescence quantification of MTs in calyceal terminals; format: cell-based, mouse
Protocol: as §1, §2

porcine tubulin = porcine tubulin (Sus scrofa, UniProt P02550+P02554); experiment: Tubulin polymerization assay (MT assembly); format: biochemical
MT-dynamin 1 binding = target: T1, MT-dynamin 1 binding (Sus scrofa, UniProt P02550+P02554); experiment: MT-dynamin binding assay (microtubule spin-down, SDS-PAGE, SYPRO Orange); design: species or system human
T1 construct: His
Protocol: Microtubule binding assay was performed using Microtubule Binding Protein Spin Down Assay Kit (cat #BK029, Cytoskeleton Inc., Denver, CO, USA). Briefly, 20 μl of 5 mg/ml tubulin in general tubulin buffer (GTB; 80 mM PIPES pH7.0, 2 mM MgCl2, 0.5 mM EGTA) supplemented with 1 mM GTP were polymerized by adding 2 μl of cushion buffer (80 mM PIPES pH7.0, 1 mM MgCl2, 1 mM EGTA, 60% glycerol), and incubated at 35° C. for 20 min. Microtubules were stabilized with 20 μM Taxol. Taxol-stabilized microtubules (2.5 μM) and dynamin 1 ([…]) were incubated in GTB with or without 1 mM peptide at room temperature for 30 min. After incubation, the 50 μl of mixture was loaded on top of 100 μl cushion buffer supplemented with 20 μM Taxol, and then centrifuged at 100,000×g for 40 min at room temperature. After the ultracentrifugation, 50 μl of supernatant was taken and mixed with 10 μl of 5×sample buffer. The resultant pellet was resuspended with 50 μl of 1×sample buffer. Twenty μl of each sample was analyzed by SDS-PAGE and stained with SYPRO Orange. Protein bands were visualized using FLA-3000 (FUJIFILM Co. LTD, Tokyo, Japan).
MTs were prepared from tubulin and stabilized by taxol. And then taxol stabilized MTs and Dyn1 were incubated with/without PHDP5. Using ultracentrifugation to separate supernatant (unbinding protein) and pellet (bound protein) fractions. Samples were analyzed by SDS-PAGE gel and visualized by SYPRO Orange staining. […] This may cause by competitive binding of Dyn1/PHDP5 to MTs (FIG. 6A).
We changed the incubation order that MTs were mixed with PHDP5 and then incubated with Dyn1.
For optimizing the condition of PHDP5 to block MT-dynamin binding, we have tried different PHDP5 concentration and incubation period with Dyn1. […] Without PHDP5, there is no difference between each time point (FIG. 7B). […] We prepared several FITC-labeled PHDP5 peptide candidates to improve the brain barrier permeability of PHDP5 (Table 3). The N-terminus of the construct was protected with β-alanine (BA) and labeled with FITC. Under the same condition, several FITC-labeled PHDP5 candidates and its' scrambled control were also tested.

[3] = 30 min after patch membrane rupture
[4] = 30 min after patch membrane rupture, listed as h-tau

T1 sequence (P02550 whole entry): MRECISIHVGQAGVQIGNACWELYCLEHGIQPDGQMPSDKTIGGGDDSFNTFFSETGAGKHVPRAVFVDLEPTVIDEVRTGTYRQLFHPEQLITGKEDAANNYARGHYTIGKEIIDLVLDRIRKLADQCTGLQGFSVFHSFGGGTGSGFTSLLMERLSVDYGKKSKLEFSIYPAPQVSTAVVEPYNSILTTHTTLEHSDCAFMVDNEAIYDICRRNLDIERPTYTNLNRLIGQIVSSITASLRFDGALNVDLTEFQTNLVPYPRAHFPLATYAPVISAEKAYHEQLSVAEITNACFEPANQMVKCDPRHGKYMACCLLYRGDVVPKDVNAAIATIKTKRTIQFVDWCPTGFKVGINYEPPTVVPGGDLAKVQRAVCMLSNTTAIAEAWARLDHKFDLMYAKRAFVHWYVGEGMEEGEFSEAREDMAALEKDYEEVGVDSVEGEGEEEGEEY
T1 sequence (P02554 whole entry): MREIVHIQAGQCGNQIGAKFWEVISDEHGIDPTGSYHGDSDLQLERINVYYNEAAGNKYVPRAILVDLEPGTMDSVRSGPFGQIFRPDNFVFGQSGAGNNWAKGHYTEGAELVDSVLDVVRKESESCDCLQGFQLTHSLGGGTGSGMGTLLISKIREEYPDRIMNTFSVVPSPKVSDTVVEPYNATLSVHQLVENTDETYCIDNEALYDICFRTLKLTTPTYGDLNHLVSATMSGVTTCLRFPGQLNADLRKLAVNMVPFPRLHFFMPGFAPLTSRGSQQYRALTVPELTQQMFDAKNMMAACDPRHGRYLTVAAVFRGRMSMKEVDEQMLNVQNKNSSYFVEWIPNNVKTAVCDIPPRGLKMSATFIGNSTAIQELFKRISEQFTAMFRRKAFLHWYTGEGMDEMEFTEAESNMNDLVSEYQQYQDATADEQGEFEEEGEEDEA
Sequence of porcine tubulin (P02550 whole entry): as the sequence (P02550 whole entry) above
Sequence of porcine tubulin (P02554 whole entry): as the sequence (P02554 whole entry) above

O=C1NC(=S)N(c2cccc(Br)c2)C(=O)/C1=C/c1ccco1 [SMFH2, reference compound]
Effect on SV endocytosis ([1]; calyceal terminals in slices from post-hearing mice (P13-14)): slightly prolonged SV endocytosis, but this effect was statistically insignificant

WT h-tau: wild-type recombinant human tau of ON4R isoform expressed in E. coli
Presynaptic Ca2+ current charge (QCa) [1]: not different from controls; also recorded: remained unchanged
Presynaptic Ca2+ current charge (QCa) ([1]; listed as h-tau): without a change
Exocytic capacitance magnitude ([1]; 20 min after patch membrane rupture): not different from controls; also recorded: remained similar to controls
Endocytic rate (endocytic capacitance change) ([1]; 20 min after patch membrane rupture, vs non-loading controls): significant slowing; also recorded: significantly prolonged
Endocytic rate (endocytic capacitance change) [1, 3]: further prolonged
Exocytic capacitance magnitude [1, 3]: significantly less than controls
Exocytic capacitance magnitude [1, 4]: significant reduction
Endocytic rate (endocytic capacitance change) [1, 4]: further slowed
Increase in dynamin signal vs terminals without loading (dynamin1; 20 μM whole-cell infusion): 2.6 fold
dynamin1 immunofluorescence intensity vs control terminals (dynamin1; WT h-tau loading): significantly increased
Miniature EPSC amplitude and frequency ([2]; 20 μM intra-terminal loading): neither amplitude nor frequency was affected
EPSC amplitude 30 min after infusion (normalized to baseline) ([2]; EPSCs evoked at 0.1 Hz): 85±12%
EPSC amplitude 30 min after infusion (normalized to baseline) ([2]; EPSCs evoked at 0.1 Hz, listed as h-tau): 85%+12
EPSC amplitude remaining 30 min after infusion (normalized to baseline) ([2]; EPSCs evoked at 1 Hz): 65±5%
EPSC amplitude remaining 30 min after infusion (normalized to baseline) ([2]; EPSCs evoked at 1 Hz, listed as h-tau): 23±9%
Increase in MT (β3-tubulin) signals vs terminals without loading (β3-tubulin; 20 μM whole-cell infusion): 2.1 fold
β3-tubulin immunofluorescence intensity vs control terminals (β3-tubulin; WT h-tau loading): significantly increased
MT assembly in in vitro tubulin polymerization assay (porcine tubulin; 10 μM): MT assembly

CC(=O)O[C@H]1C(=O)[C@@]2(C)[C@H]([C@H](OC(=O)c3ccccc3)[C@]3(O)C[C@H](OC(=O)[C@H](O)[C@@H](NC(=O)c4ccccc4)c4ccccc4)C(C)=C1C3(C)C)[C@]1(OC(C)=O)CO[C@@H]1C[C@@H]2O [taxol, reference compound]
EPSC amplitude at 30 min (normalized to baseline) ([2]; EPSCs evoked at 0.1 Hz): 104±3.0%
EPSC amplitude at 30 min (normalized to baseline) ([2]; EPSCs evoked at 0.1 Hz, listed as Taxol): 105±3.0%
EPSC amplitude at 30 min (normalized to baseline) ([2]; EPSCs evoked at 1 Hz): 41±12%
EPSC amplitude at 30 min (normalized to baseline) ([2]; EPSCs evoked at 1 Hz, listed as Taxol): 41.4±12%
MT assembly in in vitro tubulin polymerization assay (porcine tubulin; 1 μM): assembles tubulins into MTs; also recorded: MT assembly

PHDP5: synthetic dodecapeptide corresponding to amino acids 560-571 of dynamin 1 (PH domain); inhibits MT-dynamin interaction (EKKYMLSVDNLK)
Effect on exo-endocytic capacitance changes, loaded alone ([1]; 0.25 mM alone): no effect
Effect on h-tau-induced endocytic slowing [1]: significantly attenuated
Effect on h-tau-induced endocytic slowing ([1]; listed as DPHP5): significant difference
Inhibition of MT-dynamin 1 interaction (MT-dynamin 1 binding; 1 mM peptide): significantly inhibited; also recorded: strongly inhibits
% of Dyn1 in pellet fraction (MT-dynamin 1 binding; MTs incubated with 1 mM, shorter incubation period with Dyn1 (10 min)): lower
% of Dyn1 in pellet fraction (MT-dynamin 1 binding; MTs incubated with 3 mM compared with 1 mM): lower
% of Dyn1 in pellet fraction (MT-dynamin 1 binding; MTs incubated with 3 mM, incubation with Dyn1 for 5 min): lower
% of Dyn1 in pellet fraction (MT-dynamin 1 binding; MTs mixed with PHDP5 first, then incubated with Dyn1): decreased
Dynamin 1 in precipitates (ppt fraction) relative to total amount (MT-dynamin 1 binding; peptide added to MT and dynamin 1, 22.6±2.4% with MT without peptide): 6.3±2.4%
% of Dyn1 in pellet fraction (MT-dynamin 1 binding; taxol stabilized MTs and Dyn1 incubated together with/without PHDP5): no difference
Effect on EPSC amplitude, loaded alone ([2]; 1 mM alone): did not affect
Effect on EPSC amplitude, loaded alone ([2]; 1 mM alone, listed as DPHP5): no effect
Effect on h-tau-induced EPSC rundown [2]: significantly attenuated
Effect on h-tau-induced EPSC rundown ([2]; listed as DPHP5): attenuated

COC(=O)Nc1nc2ccc(C(=O)c3cccs3)cc2[nH]1 [nocodazole, reference compound]
Effect on exo-endocytosis, loaded alone ([1]; 20 μM alone): no effect
Prevention of h-tau-induced block of SV endocytosis ([1]; 20 μM co-loaded with h-tau 20 μM, 25 min after loading): fully prevented
Effect on EPSC amplitude, loaded alone ([2]; 20 μM alone): no effect
Prevention of WT h-tau-induced EPSC rundown [2]: fully prevented
Prevention of WT h-tau-induced EPSC rundown ([2]; listed as Nocodazole): prevented EPSC rundown
Concentration at which maximal inhibition of h-tau-dependent MT assembly is reached (porcine tubulin): 20 µM
Inhibition of h-tau-dependent MT assembly (porcine tubulin; nocodazole 1, 10, 20, 50 μM, ON4R h-tau (20 μM)): inhibited h-tau-dependent MT assembly in a concentration-dependent manner; also recorded: Concentration-dependent inhibitory effects

B1: del-MTBD: human tau deletion mutant lacking the MT-binding domain (amino acid 244 to 367) (protein)
chain: MAEPRQEFEVMEDHAGTYGLGDRKDQGGYTMHQDQEGDTDAGLKAEEAGIGDTPSLEDEAAGHVTQARMVSKSKDGTGSDDKKAKGADGKTKIATPRGAAPPGQKGQANATRIPAKTPPAPKTPPSSGEPPKSGDRSGYSSPGSPGTPGSRSRTPSLPTPPTREPKKVAVVRTPPKSPSSAKSRLNKKIETHKLTFRENAKAKTDHGAEIVYKSPVVSGDTSPRHLSNVSSTGSIDMVDSPQLATLADEVSASLAKQGL
Effect on EPSC amplitude, loaded alone ([2]; 20 μM alone): no effect
MT assembly in in vitro tubulin polymerization assay (porcine tubulin; 10 μM, listed as Del-MTBD): lacking tubulin polymerization capability
